Literature values, collected in paper PMC7961996, “Small Immunomodulatory Molecules as Potential Therapeutics in Experimental Murine Models of Acute Lung Injury (ALI)/Acute Respiratory Distress Syndrome (ARDS)” (International Journal of Molecular Sciences, 2021).

Columns and labels:
endotoxemia = system: endotoxemia; set-up: method as in PMID 22654663; conditions: in vivo; cited from earlier work
[1] = system: murine macrophages and human peripheral blood monocytes-hPBMC; set-up: method as in PMID 22654663; conditions: in vitro; cited from earlier work

Q: Which endotoxemia (endotoxemia) does the source give for chitohexaose here?
A: reduces endotoxemia

Q: And the “LPS-induced inflammatory mediators such as TNF-α and IL-6” value [1]?
A: blocks lipopolysaccharide (LPS)-induced inflammatory mediators
